The text below walks through data of the supplement of paper PMC10307832.

What all share (experiment): relative viability (nuclei count vs DMSO), 5 days (fraction); higher = more cells survive
Compound in assay [1]: C[C@@H](C(=O)N[C@@H](C1CCCCC1)C(=O)N2CCC[C@H]2C(=O)N[C@@H]3[C@@H](CC4=CC=CC=C34)OCC#CC#CCO[C@@H]5CC6=CC=CC=C6[C@@H]5NC(=O)[C@@H]7CCCN7C(=O)[C@H](C8CCCCC8)NC(=O)[C@H](C)NC)NC [AZD5582] + Cc1nc(Nc2ncc(C(=O)Nc3c(C)cccc3Cl)s2)cc(N2CCN(CCO)CC2)n1 [Dasatinib] (partner 0.075 µM)
An outline of the steps:
(§1)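 Medians of duplicate plates are given as relative viability. That measure is the nuclei count in treated wells divided by the count in vehicle wells. Counts were taken on 4× images of lung cancer cell lines in 1536-well plates, 5 days after pin-tool dosing the day after seeding with one drug alone or a fixed anchor-drug dose plus five library-drug doses (not always all listed) in √10 steps.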

Compound in assay [2]: Cn1nnc2c(C(N)=O)ncn2c1=O [Temozolomide] + Cc1cc(Nc2cc(N3CCN(C)CC3)nc(Sc3ccc(NC(=O)C4CC4)cc3)n2)n[nH]1 [Tozasertib] (partner 0.1 µM)
The method in brief:
as §1

Compound in assay [3]: C[C@@H](C(=O)N[C@@H](C1CCCCC1)C(=O)N2CCC[C@H]2C(=O)N[C@@H]3[C@@H](CC4=CC=CC=C34)OCC#CC#CCO[C@@H]5CC6=CC=CC=C6[C@@H]5NC(=O)[C@@H]7CCCN7C(=O)[C@H](C8CCCCC8)NC(=O)[C@H](C)NC)NC [AZD5582] + CC1(C)CCC(c2ccc(Cl)cc2)=C(CN2CCN(c3ccc(C(=O)NS(=O)(=O)c4ccc(N[C@H](CCN5CCOCC5)CSc5ccccc5)c(S(=O)(=O)C(F)(F)F)c4)cc3)CC2)C1 [Navitoclax] (partner 0.5 µM)
An outline of the steps: as §1

Compound in assay [4]: Cn1nnc2c(C(N)=O)ncn2c1=O [Temozolomide] + Nc1nc2[nH]cc(CCc3ccc(C(=O)N[C@@H](CCC(=O)O)C(=O)O)cc3)c2c(=O)[nH]1 [Pemetrexed] (partner 0.2 µM)
An outline of the steps:
as §1

As to NCI-H520, the relative viability in assay [1] (first compound 0.001581 µM) amounted to 0.202; in assay [1] (first compound 0.005 µM), 0.227; in assay [1] (first compound 0.01581 µM), 0.206; in assay [1] (first compound 0.05 µM), 0.178; in assay [2] (first compound 0.2 µM), 0.474; in assay [2] (first compound 0.6325 µM), 0.441. Besides, the relative viability in assay [2] (first compound 2 µM) came out at 0.462; in assay [2] (first compound 6.325 µM) it was 0.428; in assay [2] (first compound 20 µM), 0.426; in assay [3] (first compound 0.001581 µM) it was 1.07; in assay [3] (first compound 0.005 µM) it was 1.15; in assay [3] (first compound 0.01581 µM), 1.1. The relative viability in assay [3] (first compound 0.05 µM) turned out to be 1.15; in assay [4] (first compound 0.2 µM) it was 0.723; in assay [4] (first compound 0.6325 µM), 0.595; in assay [4] (first compound 2 µM), 0.711; in assay [4] (first compound 6.325 µM) it was 0.631; in assay [4] (first compound 20 µM), 0.74.

Consider NCI-H596, for which the relative viability in assay [1] (first compound 0.01581 µM) came to 0.617; in assay [1] (first compound 0.05 µM), 0.233; in assay [2] (first compound 0.2 µM), 0.978; in assay [2] (first compound 0.6325 µM), 1.04; in assay [2] (first compound 2 µM) it was 0.89; in assay [2] (first compound 6.325 µM) it was 0.769. Further, the relative viability amounted to 1.01 in assay [2] (first compound 20 µM); 0.811 in assay [3] (first compound 0.001581 µM); 0.581 in assay [3] (first compound 0.005 µM); 1.16 in assay [3] (first compound 0.01581 µM); 0.332 in assay [3] (first compound 0.05 µM); 0.515 in assay [4] (first compound 0.2 µM). The relative viability in assay [4] (first compound 0.6325 µM) worked out at 0.535; in assay [4] (first compound 2 µM) it was 0.621; in assay [4] (first compound 6.325 µM), 0.465; in assay [4] (first compound 20 µM), 0.574.

With NCI-H647, the relative viability in assay [1] (first compound 0.001581 µM) was 0.175; in assay [1] (first compound 0.005 µM), 0.187; in assay [1] (first compound 0.01581 µM), 0.119; in assay [1] (first compound 0.05 µM), 0.207; in assay [2] (first compound 0.2 µM), 0.263; in assay [2] (first compound 0.6325 µM) it was 0.307. Besides, the relative viability in assay [2] (first compound 2 µM) was determined as 0.412; in assay [2] (first compound 6.325 µM), 0.148; in assay [2] (first compound 20 µM), 0.147; in assay [3] (first compound 0.001581 µM), 1.02; in assay [3] (first compound 0.005 µM), 1.09; in assay [3] (first compound 0.01581 µM) it was 0.919. The relative viability in assay [3] (first compound 0.05 µM) stood at 1.27; in assay [4] (first compound 0.2 µM), 0.169; in assay [4] (first compound 0.6325 µM), 0.17; in assay [4] (first compound 2 µM), 0.2; in assay [4] (first compound 6.325 µM) it was 0.146; in assay [4] (first compound 20 µM), 0.122.

For the cell line NCI-H838, the relative viability in assay [1] (first compound 0.001581 µM) was 0.293; in assay [1] (first compound 0.005 µM), 0.344; in assay [1] (first compound 0.05 µM) it was 0.191; in assay [2] (first compound 0.2 µM) it was 0.267; in assay [2] (first compound 0.6325 µM), 0.286; in assay [2] (first compound 2 µM), 0.309. The relative viability in assay [2] (first compound 6.325 µM) amounted to 0.264; in assay [2] (first compound 20 µM), 0.254; in assay [3] (first compound 0.001581 µM) it was 1.09; in assay [3] (first compound 0.005 µM) it was 1.2; in assay [3] (first compound 0.01581 µM) it was 1.05; in assay [3] (first compound 0.05 µM), 1.18. The relative viability came to 0.247 in assay [4] (first compound 0.2 µM); 0.256 in assay [4] (first compound 0.6325 µM); 0.254 in assay [4] (first compound 2 µM); 0.252 in assay [4] (first compound 6.325 µM); 0.233 in assay [4] (first compound 20 µM).

Regarding NCI-H1355, the relative viability in assay [1] (first compound 0.001581 µM) came to 0.638; in assay [1] (first compound 0.005 µM) it was 0.749; in assay [1] (first compound 0.01581 µM), 0.583; in assay [1] (first compound 0.05 µM), 0.719; in assay [2] (first compound 0.2 µM) it was 0.583; in assay [2] (first compound 0.6325 µM), 0.612. In addition, the relative viability in assay [2] (first compound 2 µM) was determined as 0.66; in assay [2] (first compound 6.325 µM) it was 0.548; in assay [2] (first compound 20 µM) it was 0.553; in assay [3] (first compound 0.001581 µM), 0.926; in assay [3] (first compound 0.005 µM), 0.951; in assay [3] (first compound 0.01581 µM) it was 0.954. In addition, the relative viability in assay [3] (first compound 0.05 µM) amounted to 1.01; in assay [4] (first compound 0.2 µM), 1.01; in assay [4] (first compound 0.6325 µM) it was 1.03; in assay [4] (first compound 2 µM), 0.963; in assay [4] (first compound 6.325 µM), 1; in assay [4] (first compound 20 µM) it was 0.998.
